Key:
U251MG in coculture = test: Bystander killing assay, 1:1 coculture, far red negative population; format: cell-based; settings: 6 days
Experimental: Bystander killing by an ADC can take place when the cytotoxic payload is released from the target cells and is then taken up by surrounding antigen-negative (bystander) cells. […] A 1:1 coculture of 1500 cells/well of far red labeled U251 MG/hEGFRvIII cells and 1500 cells/well unlabeled U251 MG cells were incubated with either ADC or free payload M31 at a range of concentrations (100 nM to 1.5 pM) for 6 days. Cells were subsequently treated with 3 ug/mL of Hoechst 33342 nuclear stain (ThermoFisher, #H3570) while being fixed with 4% formaldehyde (ThermoFisher, #28908). Images were acquired on the Opera Phenix Microscope (PerkinELmer). All cells were identified by the Hoechst-labeled nuclei and cell counts were separated into far red positive U251 MG/hEGFRvIII cells (U251 in coculture) and far red negative parental U251 MG cell populations via Harmony image analysis software (PerkinELmer). Cell viability was determined separately for each cell population and expressed as a percentage of the untreated (100% viable) cells.

[1] = tested on: U251MG/hEGFRvIII in coculture; test: Bystander killing assay, 1:1 coculture, far red positive population; format: cell-based, human; settings: 6 days
Experimental: Bystander killing by an ADC can take place when the cytotoxic payload is released from the target cells and is then taken up by surrounding antigen-negative (bystander) cells. […] Cells were subsequently treated with 3 ug/mL of Hoechst 33342 nuclear stain (ThermoFisher, #H3570) while being fixed with 4% formaldehyde (ThermoFisher, #28908). Images were acquired on the Opera Phenix Microscope (PerkinELmer). All cells were identified by the Hoechst-labeled nuclei and cell counts were separated into far red positive U251 MG/hEGFRvIII cells (U251 in coculture) and far red negative parental U251 MG cell populations via Harmony image analysis software (PerkinELmer). Cell viability was determined separately for each cell population and expressed as a percentage of the untreated (100% viable) cells.

U251 MG/hEGFRvIII cells = test: In vitro cytotoxicity (nuclear counts after 6-day treatment), mono-culture; format: cell-based, human
Text: (§1) To determine the relative cell-killing potency of anti-EGFRvIII antibody drug conjugates of the invention, cell-killing assays were run on a cell line expressing human EGFRvIII. To develop the cell line, Lipofectamine LTX with Plus Reagent was used to generate U251 cells (Sigma, #9063001) expressing human EGFRvIII (hEGFRvIII; amino acids 1 through 380 of accession number NP_005219.2 with a deletion of amino acids 30 through 297 and creation of a junctional glycine residue, i.e. SEQ ID NO: 25) here in referred to as U251 MG/hEGFRvIII. The U251 lines were maintained in complete growth media (MEM Earle's Salts+10% FBS+1% L-glutamine/penicillin/streptomycin+1% non-essential amino acids+sodium pyruvate).
(§2) To measure the in vitro cytotoxicity of anti-EGFRvIII antibody drug conjugates, nuclear counts after a 6-day treatment with the antibody drug conjugates were assessed. […] Nuclear counts were determined via Harmony image analysis software (PerkinELmer), and cell viability was expressed as a percentage of the untreated (100% viable) cells. IC50 values were determined using a four-parameter logistic equation over a 10-point dose response curve (GraphPad Prism). The maximum % kill was also determined for each test article as follows: 100-minimum percent viability.

U251 MG parental cells = test: as above; format: cell-based
Text: as §1, §2

U251/EGFRvIII xenografts = test: Subcutaneous U251/EGFRvIII xenograft, comparison with COMP-MMAF (Example 11); format: in vivo, SCID mice; settings: for Tumor growth (mm^3) from start of treatment (mean ± SD) / Tumor volume (mm^3) at termination of vehicle group (mean ± SD): Day 36 post-treatment
Experimental: For the initial xenograft study, U251/EGFRvIII tumors were established by the subcutaneous implantation of 10×10^6 cells mixed 1:1 with Matrigel on the right flank of male SCID mice. Tumors were grown to ˜175 mm^3 before treatment initiation, approximately 30 days post-implantation. Mice were randomized into groups of 8 and treated with a single dose of test or control ADCs. Tumor growth was monitored for 71 days post-treatment.

[2] = tested on: Orthotopically placed GBM59 GBM PDX tumors; test: Intracranial orthotopic GBM59 PDX survival, comparison with COMP-MMAF (Example 11); format: in vivo, mice
Experimental: Intracranial injection was performed at 1 mm anterior and 2 mm lateral to the bregma at a depth of 3 mm. All orthotopic GBM PDX studies were conducted by Translational Drug Development Inc. Orthotopic GBM59 PDX were allowed to establish for 25 days before mice were randomized into groups of 8 and treated with a single dose of test or control ADCs. Mice were monitored for 94 days for signs of peri-morbidity and euthanized prior to reaching a moribund state.

COc1cc2c(cc1OCCCCCOc1cc3c(cc1OC)C(=O)N1C=C(C)C[C@H]1C=N3)N=C[C@@H]1CC(C)=CN1C2=O [SG3199]
% Kill (maximum) (U251MG in coculture): 94% | IC50 (U251MG in coculture; Homo sapiens, U-251, 144 h): 7 pM | % Kill (maximum) [1]: 91% | IC50 ([1]; Homo sapiens, U-251, 144 h): 10 pM | IC50 (U251 MG/hEGFRvIII cells; Homo sapiens, U-251, 144 h): 10 pM | % Kill (maximum) (U251 MG/hEGFRvIII cells; U251MG/hEGFRvIII mono-culture, 6 days): 92% | IC50 (U251 MG parental cells; Homo sapiens, U-251, 144 h): 2 pM | % Kill (maximum) (U251 MG parental cells; U251MG mono-culture, 6 days): 93%

COMP-MMAF: ABT-414 (hu806) antibody conjugated to monomethyl auristatin F (MMAF) via non-cleavable linker
Anti-tumor activity (U251/EGFRvIII xenografts; COMP-MMAF 2.5 mg/kg): Activity against tumors was seen | Anti-tumor activity (U251/EGFRvIII xenografts; COMP-MMAF 5 mg/kg, 71 days post-dosing): sustained activity similar to that resulting from treatment with REGN3124-tesirine | Tumor growth (mm^3) from start of treatment (mean ± SD) (U251/EGFRvIII xenografts; ADC dose 1 mg/kg): 423 ± 324 mm^3 | Tumor volume (mm^3) at termination of vehicle group (mean ± SD) (U251/EGFRvIII xenografts; ADC dose 1 mg/kg): 595 ± 325 mm^3 | Tumor growth (mm^3) from start of treatment (mean ± SD) (U251/EGFRvIII xenografts; ADC dose 2.5 mg/kg): 6 ± 36 mm^3 | Tumor volume (mm^3) at termination of vehicle group (mean ± SD) (U251/EGFRvIII xenografts; ADC dose 2.5 mg/kg): 183 ± 51 mm^3 | Tumor growth (mm^3) from start of treatment (mean ± SD) (U251/EGFRvIII xenografts; ADC dose 5 mg/kg): −36 ± 22 mm^3 | Tumor volume (mm^3) at termination of vehicle group (mean ± SD) (U251/EGFRvIII xenografts; ADC dose 5 mg/kg): 136 ± 16 mm^3 | Anti-tumor activity (U251/EGFRvIII xenografts; REGN3124-tesirine 0.53 mg/kg ADC (7 ug/kg PBD payload), COMP-MMAF 1 mg/kg, isotype controls all dose levels): Sustained regression was not observed | N = 8 survival at Day 94 ([2]; ADC dose 1 (mg/kg)): 0/8 | median survival ([2]; ADC dose 1 (mg/kg)): 13.5 days | N = 8 survival at Day 94 ([2]; ADC dose 5 (mg/kg), MMAF ADCs): 0/8 | median survival ([2]; ADC dose 5 (mg/kg), MMAF ADCs): 23.5 days | Effect on survival relative to the MMAF control ([2]; COMP-MMAF 5 mg/kg): some increase in survival | Time within which all mice succumbed to tumor burden ([2]; COMP-MMAF 5 mg/kg): ≤ 35 days of treatment | Effect on survival ([2]; REGN3124-tesirine DAR 1.9, 7 ug/kg payload, COMP-MMAF 1 mg/kg, controls): did not induce a significant increase in survival

From patent publication US20240293566A1, “ANTI-EGFRvIII ANTIBODY DRUG CONJUGATES AND USES THEREOF” (Regeneron Pharmaceuticals, Inc., priority 2021, published 2024)
